Measured values taken from patent US9775859B2, “Methods and compositions for preventing and treating a disease related to glycan dysregulation” (Sinai Health System, priority 2005, dated 2017).
Entries after “also recorded” stand apart in the source; their conditions may differ.

Legend:
[1] = test system: EAE; conditions: mouse, in vivo; cited from earlier work
[2] = test system: human PBMCs; assay: L-PHA staining of human PBMCs / MS patient T cells; assay type: cell-based
Experimental: Mononuclear cells were isolated from the blood of subjects using Histopaque-1077™ gradients (Sigma, Saint Louis, Mo.) and cultured in RPMI 1640 medium supplemented with 4 mM glutamine, 1 mM sodium pyruvate, 1% non-essential amino acids, 1% RPMI vitamins, 100 units/ml penicillin, 100 μg/ml streptomycin, and 50 μM […]. T lymphocytes were left unstimulated or were activated for 48 hours with 20 ng/ml anti-CD3 antibody (Biomeda, Foster City, Calif.) or a combination of 20 myelin peptides at […] myelin basic protein (MBP). The myelin peptides were immunodominant peptides from human proteolipid protein (PLP 30-49, PLP 40-60, PLP 95-118, PLP 118-150, PLP-180-189, PLP 185-206), human myelin oligodendrocyte glycoprotein (MOG 38-60, MOG 63-87, MOG 76-100, MOG 89-113, MOG 112-132 and MOG 162-188) and cryptic peptides from MBP (MBP 41-69, MBP 61-79, MBP 121-139 and MBP 131-149) and PLP (PLP 73-104, PLP 145-186, PLP 218-248 and PLP 241-272) that are not normally derived from antigen processing but may be made by extracellular proteolytic activity (57). Whole MBP was isolated from frozen guinea pig spinal cords (Harlan Bioproducts, Indianapolis, Ind.). […] The stained cells were analyzed on a FACScan (BD Biosciences, San Jose, Calif.) using the CellQuest software. […] Background fluorescence was subtracted for each population. […]

[3] = test system: hepatoma cells; conditions: cited from earlier work
[4] = test system: T cell; conditions: cited from earlier work
[5] = test system: Jurkat T-cells; assay: L-PHA-FITC staining of Jurkat T cells cultured 3 days with monosaccharides, metabolites, Vitamin D3 or glycosidase inhibitors, FACS; assay type: cell-based, human; conditions: for Mgat5 N-glycans / β1,6GlcNAc-branched N-glycans expression (L-PHA staining): Jurkat T-cells, 3 days culture with supplement
Experimental: (§1) Mice used for L-PHA staining and quantitative RT-PCR were sex and age matched. […] 129/Sv mice were from an original Mgat5 gene targeted population (28). All other mice (SJL, NOD, Balb/c and B10.S) were obtained from Jackson Laboratories. […] Mouse and Jurkat cells were stained with L-PHA and LEA by first blocking with PBA (2% bovine serum albumin/0.01% azide/PBS) for 10 min at 4° C. and then incubated with 4 μg/ml of L-PHA-FITC (Vector Laboratories Inc.) or 20 μg/ml of LEA-FITC (Sigma) in PBA for 40 min at 4° C. and analyzed by a BD FACSCalihur (BD Pharmingen, San Diego, Calif.). The level of lectin binding was normalized by untreated control and calculated as a percentage (Sample intensity/control intensity-1) %.
(§2) Mice used for L-PHA staining and quantitative RT-PCR were sex and age matched. […] 129/Sv mice were from the original Mgat5 gene targeted population (28). All other mice (SJL, NOD, Balb/c and B10.S) were obtained from Jackson Laboratories. Mouse cells were stained with anti-CD4 (RM4-5), anti-CD8 (53-6.7), anti-CD45R (RA3-6B2) from eBioscience, and L-PHA (4 μg/ml) and LEA (20 μg/ml) from Sigma. […] Jurkat T-cells were cultured in either glutamine free RPMI 1640, 10% FBS, 10 mM/20 mM glucose or glucose/glutamine free DMEM base media supplemented with 10% FBS, 1.5 mM glucose. The indicated monosaccharides and/or metabolites were added daily except glucose which was added only at time zero.

[6] = test system: Jurkat T-cells; assay: MS/MS mass spectroscopy of sugar-nucleotide expression in Jurkat cell lysates; assay type: cell-based, human
Experimental: Jurkat cell pellets (20×10^6) were resuspended in a cold 300 μl methanol:water (1:1) solution containing maltose as internal standard, vortexed for 10 seconds, and then pipetted into tubes containing 600 μl of chloroform:methanol (C:M) (3:2). Samples were vortexed for 1 minute, and then centrifuged at 14,000 rpm for 5 minutes at 4° C. Supernatants were collected, and an equal volume of C:M (1:1) was added, followed by a second extraction. The pooled aqueous fraction containing the hydrophilic metabolites was dried with a speedvac and stored at −80° C. Prior to injection, the samples were dissolved in 100 μl methanol:water (1:1). […] The metabolites were identified by their transitions in MS/MS, and quantified using the Analyte Software (SCIEX), which measured the area under the curve for the fragment ions corresponding to each parent ion. Quantities for the given substrates are graphed as pmole/min/10^6 cells.
JurkaT-cell pellets (20×10^6) were resuspended in cold 300 μl methanol:water (1:1) solution containing maltose as an internal standard, vortexed for 10 seconds, and then pipetted into tubes containing 600 μl of chloroform:methanol (C:M) (3:2). […] The metabolites were identified by their transitions in MS/MS, and quantified using the Analyte Software (SCIEX), which measured the area under the curve for the fragment ions corresponding to each parent ion. […]

[7] = test system: Jurkat T-cells; assay: LEA-FITC staining (poly-N-acetyllactosamine) of Jurkat T cells, FACS; assay type: cell-based, human; conditions: 3 days culture with supplement
Experimental: as §1, §2

[8] = test system: CD3+ T cells; assay: Trypan blue exclusion of MBP-stimulated cultures used for adoptive transfer; assay type: cell-based; conditions: 96 hours incubation, 40 mM added daily
Experimental: (§3) Adoptive transfer EAE was induced by s.c. immunization of wild type PL/J mice housed in the UCI vivarium with 100 μg of bovine MBP (Sigma) emulsified in Complete Freund's Adjuvant containing 4 mg/ml heat-inactivated Mycobacterium tuberculosis (H37 RA; Difco, Detroit, Mich.) distributed over three spots on the hind flank. Splenocytes were harvested after 11 days and stimulated in vitro with 50 μg/ml MBP in the presence or absence of 40 mM N-Acetyl-D-glucosamine (Sigma) added daily. After 96 hours incubation, CD3^+ T cells were purified by negative selection (R&D Systems) and 3.5×10^6T-cells were injected i.p. into naïve PL/J Mgat5^+/− recipient mice. Trypan blue exclusion determined <3% dead cells under both culture conditions. The mice were scored daily for clinical signs over the next 30 days with the observer blinded to treatment conditions.
(§4) Adoptive transfer EAE was induced by s.c. immunization of wild type PL/J mice housed in the UCI vivarium with 100 μg of bovine MBP (Sigma) emulsified in Complete Freund's Adjuvant containing 4 mg/ml heat-inactivated Mycobacterium tuberculosis (H37 RA; Difco, Detroit, Mich.) distributed over three spots on the hind flank. […] Trypan blue exclusion determined […] dead cells under both culture conditions. Mice were scored daily for clinical signs of EAE over the next 30 days with the observer blinded to treatment conditions.

[9] = test system: splenocytes harvested from MBP immunized wild type PL/J mice; assay: L-PHA and LEA staining of splenocytes from MBP immunized PL/J mice re-stimulated with MBP; assay type: cell-based, mouse; conditions: MBP re-stimulation 4 days, GlcNAc 40 mM
Experimental: as §3
as §1, with “(28).” for “(28). All other mice (SJL, NOD, Balb/c and B10.S) were obtained from Jackson Laboratories.”, “The level of lectin binding was normalized by untreated control and calculated as a percentage (Sample intensity/control intensity-1) %.” left out

[10] = test system: naïve PL/J Mgat5+/− recipient mice; assay: Adoptive transfer EAE; assay type: in vivo, mouse; conditions: T-cells re-stimulated in vitro with GlcNAc 40 mM, scored 30 days
Experimental: as §3, §4

[11] = test system: splenocytes harvested from MBP immunized wild type PL/J mice; assay: Cytokine ELISA of supernatant from MBP re-stimulated splenocyte cultures; assay type: cell-based, mouse; conditions: MBP re-stimulation day 4, GlcNAc 40 mM
Experimental: Supernatant from spleenocyte cultures used for adoptive transfer EAE at day 4 of stimulation with MBP in the presence or absence of GlcNAc (40 mM) were tested for INFγ levels. Microtiter plates were coated with 50 μl of anti-IFN-γ (1 μg/ml, clone AN-18; eBiosciences) overnight at 4° C. Supernatants were applied at 50 μl/well in duplicate and incubated for 2 hours at room temperature. Captured cytokines were detected using biotinylated anti-IFN-γ (1 μg/ml, clone R4-6A2; eBiosciences) and detected using Avidin Horse Radish Peroxidase (eBiosciences) at 1:500× dilution and o-Phenylenediamine dihydrochloride OPD tablets (Sigma) according to the manufacturer's protocols. […] Colorimetric change was measured at 450 nm on a microplate autoreader (Labsystems).
Supernatant from splenocyte cultures used for adoptive transfer EAE at day 4 of stimulation with MBP in the presence or absence of GlcNAc (40 mM) were tested for IFN-γ and IL-6 levels. […] Captured cytokines were detected using biotinylated anti-IFN-γ (1 μg/ml, clone R4-6A2; eBiosciences) or anti-IL-6 (1 μg/ml, clone MP5-32C11; eBiosciences) and detected using Avidin Horse Radish Peroxidase (eBiosciences) at 1:500× dilution and o-Phenylenediamine dihydrochloride OPD tablets (Sigma) according to the manufacturer's protocols. […] Colorimetric change was measured at 450 nm on a microplate autoreader (Labsystems).

Row | Structure (SMILES) | EAE [1] | reversal of attenuated Mgat5 N-glycan expression in MS patients ([2]; MS patient T cells) | Mgat5 modified glycan expression ([2]; human PBMCs) | Mgat5 mRNA expression [3] | INFγ production [4] | T cell activation [4] | TH1 differentiation [4] | reversal of SW induced downregulation of Mgat5 glycans ([5]; Jurkat T cells with swainsonine) | synergy with anti-CD3 in up-regulating Mgat5 glycan levels ([5]; Jurkat T cells, anti-CD3) | Mgat5 N-glycans / β1,6GlcNAc-branched N-glycans expression (L-PHA staining) [5] | intracellular UDP-GlcNAc levels [6] | poly-N-acetyllactosamine expression (LEA staining) [7] | dead cells (Trypan blue exclusion) [8] | dead cells (Trypan blue exclusion) ([8]; listed as N-Acetyl-D-glucosamine) | Mgat5 N-glycan / β1,6GlcNAc-branched N-glycans expression in re-stimulated splenocytes [9] | poly-N-acetyllactosamine expression in re-stimulated splenocytes [9] | incidence of EAE following adoptive transfer of T-cells [10] | severity of EAE following adoptive transfer of T-cells [10] | IL-6 secretion [11] | INFγ production [11]
1 | C=C1/C(=C\C=C2/CCC[C@]3(C)[C@@H]([C@H](C)CCCC(C)(C)O)CC[C@@H]23)C[C@@H](O)C[C@@H]1O [Vitamin D3, 1α,25-Dihydroxyvitamin D3] | inhibits | reversed | enhanced | up-regulates | inhibits | inhibits | inhibits | rescued; also recorded: reversed | synergized | enhanced; also recorded: increases | – | – | – | – | – | – | – | – | – | –
2 | CC(=O)N[C@H]1C(O)O[C@H](CO)[C@@H](O)[C@@H]1O (stereo partly drawn) [GlcNAc, N-acetyl-D-glucosamine] | – | – | – | – | – | – | – | – | – | dose dependently increased | dramatically raised | dose dependently increased | < 5% | < 3% | doubled; also recorded: increased | doubled; also recorded: increased | dramatically reduced | dramatically reduced | promoted | inhibited
